# Legend:
# [1] = biological target: T1, Nuclear receptor ROR-gamma (Homo sapiens, UniProt P51449); test: Agonist activity at human RORgammat LBD (265 to 507 residues) expressed in Escherichia coli BL21(DE3) cells incubated for 1 hr FRET assay
# T1 sequence (P51449 whole entry): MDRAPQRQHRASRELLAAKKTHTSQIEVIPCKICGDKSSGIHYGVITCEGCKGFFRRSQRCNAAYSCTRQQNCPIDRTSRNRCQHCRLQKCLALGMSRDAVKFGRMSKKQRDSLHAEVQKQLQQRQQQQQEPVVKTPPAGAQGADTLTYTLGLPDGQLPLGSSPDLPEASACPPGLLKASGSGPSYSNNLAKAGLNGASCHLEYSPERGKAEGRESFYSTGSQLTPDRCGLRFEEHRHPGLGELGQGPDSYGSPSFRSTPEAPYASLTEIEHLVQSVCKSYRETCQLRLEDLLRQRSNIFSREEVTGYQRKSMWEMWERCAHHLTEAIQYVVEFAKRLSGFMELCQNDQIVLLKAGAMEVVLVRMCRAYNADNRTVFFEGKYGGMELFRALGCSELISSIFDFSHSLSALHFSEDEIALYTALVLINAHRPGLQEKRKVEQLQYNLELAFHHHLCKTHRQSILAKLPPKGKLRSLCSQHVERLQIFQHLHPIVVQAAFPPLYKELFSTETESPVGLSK
# [2] = Microsomal stability in mouse liver microsome assessed as half life at 1 uM preincubated for 10 mins followed by NADPH addition measured upto 60 mins by HPLC-MS/MS analysis; format: ADME; conditions: liver microsomes, time < 70 min
# [3] = biological target: T1, Nuclear receptor ROR-gamma; test: Agonist activity at Gal4-fused human RORgammat LBD expressed in HEK293T cells assessed as luciferase activity incubated for 16 to 20 hrs by luciferase reporter gene assay; format: cell-based
# [4] = biological target: T1, Nuclear receptor ROR-gamma; test: Inverse agonist activity at human RORgammat LBD (265 to 507 residues) expressed in Escherichia coli BL21(DE3) cells incubated for 1 hr FRET assay
EC50 [1] [nM],half-life at 1 µM [2] [min],SMILES,further results
–,8.7,CCn1c2ccc(OC(C)C)cc2c2cc(C(=O)NCc3ccc(S(=O)(=O)CC)cc3)ccc21,–
9.7,–,CCn1c2ccc(CC3CC3)cc2c2cc(C(=O)NCc3ccc(S(=O)(=O)CC)cn3)ccc21,–
12.1,14.8,CCn1c2ccc(OC(C)C)cc2c2cc(C(=O)NCc3ccc(S(C)(=O)=O)cc3)ccc21,–
–,17,CCn1c2ccc(OC(C)C)cc2c2cc(C(=O)NCc3ccc(S(C)(=O)=O)cn3)ccc21,–
–,20.4,CCn1c2ccc(OCC(C)C)cc2c2cc(C(=O)NCc3ccc(S(=O)(=O)CC)cc3)ccc21,–
12.5,–,CCn1c2ccc(CC3CC3)cc2c2cc(C(=O)NCc3ccc(S(C)(=O)=O)cn3)ccc21,–
5.6,18.2,CCn1c2ccc(OC(C)C)cc2c2cc(C(=O)NCc3ccc(S(=O)(=O)CC)cn3)ccc21,–
–,16.5,CCn1c2ccc(OC3CC3)cc2c2cc(C(=O)NCc3ccc(S(=O)(=O)CC)cc3)ccc21,–
–,19.9,CCn1c2ccc(OC(C)C(F)(F)F)cc2c2cc(C(=O)NCc3ccc(S(=O)(=O)CC)cc3)ccc21 (stereo unspecified),–
–,17.9,CCn1c2ccc(OC(C)C)cc2c2cc(C(=O)NC(CO)c3ccc(S(=O)(=O)CC)cc3)ccc21 (racemic),–
7.8,14.1,CCS(=O)(=O)c1ccc(CNC(=O)c2ccc3c(c2)c2cc(OC(C)C)ccc2n3CCF)cc1,–
10.9,26.9,CCn1c2ccc(CC(C)C)cc2c2cc(C(=O)NCc3ccc(S(=O)(=O)CC)cc3)ccc21,–

# The remaining lines, values behind:
SMILES,EC50 [1] [nM],half-life at 1 µM [2] [min],further results
CCn1c2ccc(CC3CC3)cc2c2cc(C(=O)NC(CO)c3ccc(S(=O)(=O)CC)cc3)ccc21 (racemic),14.7,41.4,–
CCn1c2ccc(CC(C)C(F)(F)F)cc2c2cc(C(=O)NCc3ccc(S(=O)(=O)CC)cc3)ccc21 (stereo unspecified),–,26.2,–
CCn1c2ccc(C(=O)NCc3ccc(S(=O)(=O)CC)cc3)cc2c2c(OC(C)C)cccc21,29.4,–,–
CCn1c2ccc(OC3CCC3)cc2c2cc(C(=O)NCc3ccc(S(=O)(=O)CC)cc3)ccc21,–,16.4,–
CCn1c2ccc(CN(C)C)cc2c2cc(C(=O)NCc3ccc(S(=O)(=O)CC)cc3)ccc21,181,–,–
CCn1c2ccc(CC3CC3)cc2c2cc(C(=O)NCc3ccc(S(=O)(=O)CC)cc3)ccc21,–,48.8,–
CCn1c2ccc(CC3CC3)cc2c2cc(C(=O)N[C@H](COC)c3ccc(S(=O)(=O)CC)cc3)ccc21,–,40.8,–
CCS(=O)(=O)c1ccc(C(COC)NC(=O)c2ccc3c(c2)c2cc(CC4CC4)ccc2n3CCF)cc1 (racemic),28.3,37.1,EC50 [3]: 348 nM
CCS(=O)(=O)c1ccc(CNC(=O)c2ccc3c(c2)c2cc(CC4CC4)ccc2n3CCF)cc1,15.7,80.4,EC50 [3]: 245 nM
CCn1c2ccc(CC3CC3)cc2c2cc(C(=O)N[C@@H](COC)c3ccc(S(=O)(=O)CC)cc3)ccc21,–,> 154,–
CCn1c2ccc(CC3CCC3)cc2c2cc(C(=O)NCc3ccc(S(=O)(=O)CC)cc3)ccc21,12.6,–,–
CCn1c2ccc(CC(C)(C)F)cc2c2cc(C(=O)NCc3ccc(S(=O)(=O)CC)cc3)ccc21,10.3,20.8,–
CCn1c2ccc(CC3COC3)cc2c2cc(C(=O)NCc3ccc(S(=O)(=O)CC)cc3)ccc21,–,–,IC50 [4]: 6.59 µM
CCn1c2ccc(CC3CC3)cc2c2cc(C(=O)NC(COC)c3ccc(S(=O)(=O)CC)cc3)ccc21 (racemic),–,> 145,–
